Literature values in patent publication US8492403B2, “Bicyclic derivatives as modulators of voltage gated ion channels” (Vertex Pharmaceuticals Incorporated, priority 2005, dated 2013).

Key:
[1] = neuropathic pain; cited from earlier work
NaV 1.8 = NaV 1.8 (Homo sapiens, UniProt Q9Y5Y9); details: read-out: TTX IC50; cited from earlier work
NaV 1.3 = NaV 1.3 (Homo sapiens, UniProt Q9NY46); details: read-out: TTX IC50; cited from earlier work
Chain of NaV 1.3 (Q9NY46 whole entry, looked up): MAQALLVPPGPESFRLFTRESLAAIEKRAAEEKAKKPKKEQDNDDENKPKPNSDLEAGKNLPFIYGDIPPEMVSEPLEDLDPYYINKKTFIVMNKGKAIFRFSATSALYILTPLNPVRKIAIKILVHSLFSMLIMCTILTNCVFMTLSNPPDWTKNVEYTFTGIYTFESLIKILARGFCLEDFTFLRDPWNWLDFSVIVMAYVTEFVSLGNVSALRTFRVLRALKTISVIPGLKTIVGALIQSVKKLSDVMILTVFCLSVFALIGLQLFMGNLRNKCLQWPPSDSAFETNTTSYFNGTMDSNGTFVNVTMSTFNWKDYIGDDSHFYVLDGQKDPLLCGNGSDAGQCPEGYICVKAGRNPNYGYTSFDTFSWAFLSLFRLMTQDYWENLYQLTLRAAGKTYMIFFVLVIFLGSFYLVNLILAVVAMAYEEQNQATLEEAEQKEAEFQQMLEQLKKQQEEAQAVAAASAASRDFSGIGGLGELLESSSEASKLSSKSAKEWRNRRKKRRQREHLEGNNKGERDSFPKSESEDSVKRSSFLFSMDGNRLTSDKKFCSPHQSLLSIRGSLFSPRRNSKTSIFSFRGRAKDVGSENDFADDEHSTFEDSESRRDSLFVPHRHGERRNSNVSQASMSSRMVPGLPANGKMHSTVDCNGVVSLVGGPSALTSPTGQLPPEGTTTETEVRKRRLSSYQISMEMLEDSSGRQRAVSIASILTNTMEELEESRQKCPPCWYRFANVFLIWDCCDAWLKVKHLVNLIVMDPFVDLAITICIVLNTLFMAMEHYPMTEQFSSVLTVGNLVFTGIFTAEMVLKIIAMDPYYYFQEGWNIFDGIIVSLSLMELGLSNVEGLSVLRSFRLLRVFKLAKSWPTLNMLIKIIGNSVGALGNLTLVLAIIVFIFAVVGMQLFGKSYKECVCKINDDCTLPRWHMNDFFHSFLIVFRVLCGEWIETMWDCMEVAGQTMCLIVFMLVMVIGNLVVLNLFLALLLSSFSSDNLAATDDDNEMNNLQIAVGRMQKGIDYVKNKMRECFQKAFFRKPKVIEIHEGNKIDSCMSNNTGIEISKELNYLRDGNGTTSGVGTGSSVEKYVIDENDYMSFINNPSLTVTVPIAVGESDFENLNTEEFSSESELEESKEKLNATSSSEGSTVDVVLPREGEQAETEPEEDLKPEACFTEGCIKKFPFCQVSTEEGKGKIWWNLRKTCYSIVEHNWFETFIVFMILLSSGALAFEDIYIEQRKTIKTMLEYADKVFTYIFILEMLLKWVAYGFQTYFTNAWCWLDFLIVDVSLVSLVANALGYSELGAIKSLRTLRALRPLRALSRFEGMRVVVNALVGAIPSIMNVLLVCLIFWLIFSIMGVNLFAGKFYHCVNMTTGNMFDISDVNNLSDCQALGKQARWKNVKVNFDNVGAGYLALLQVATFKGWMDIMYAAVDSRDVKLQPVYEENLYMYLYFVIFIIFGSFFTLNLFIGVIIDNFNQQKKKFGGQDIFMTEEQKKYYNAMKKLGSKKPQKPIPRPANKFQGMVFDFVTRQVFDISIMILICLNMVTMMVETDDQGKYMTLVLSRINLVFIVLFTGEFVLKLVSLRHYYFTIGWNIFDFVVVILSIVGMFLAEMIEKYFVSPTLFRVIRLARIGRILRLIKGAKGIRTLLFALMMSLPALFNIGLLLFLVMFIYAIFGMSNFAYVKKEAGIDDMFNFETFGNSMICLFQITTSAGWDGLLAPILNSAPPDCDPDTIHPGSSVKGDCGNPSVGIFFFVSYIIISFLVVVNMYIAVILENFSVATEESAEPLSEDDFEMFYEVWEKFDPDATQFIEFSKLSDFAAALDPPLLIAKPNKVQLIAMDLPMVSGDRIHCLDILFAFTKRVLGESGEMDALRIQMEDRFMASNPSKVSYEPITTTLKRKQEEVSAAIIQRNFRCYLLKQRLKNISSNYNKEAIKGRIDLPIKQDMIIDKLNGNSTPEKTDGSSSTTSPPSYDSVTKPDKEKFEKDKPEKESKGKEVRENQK

Chain of NaV 1.8 (Q9Y5Y9 whole entry, looked up): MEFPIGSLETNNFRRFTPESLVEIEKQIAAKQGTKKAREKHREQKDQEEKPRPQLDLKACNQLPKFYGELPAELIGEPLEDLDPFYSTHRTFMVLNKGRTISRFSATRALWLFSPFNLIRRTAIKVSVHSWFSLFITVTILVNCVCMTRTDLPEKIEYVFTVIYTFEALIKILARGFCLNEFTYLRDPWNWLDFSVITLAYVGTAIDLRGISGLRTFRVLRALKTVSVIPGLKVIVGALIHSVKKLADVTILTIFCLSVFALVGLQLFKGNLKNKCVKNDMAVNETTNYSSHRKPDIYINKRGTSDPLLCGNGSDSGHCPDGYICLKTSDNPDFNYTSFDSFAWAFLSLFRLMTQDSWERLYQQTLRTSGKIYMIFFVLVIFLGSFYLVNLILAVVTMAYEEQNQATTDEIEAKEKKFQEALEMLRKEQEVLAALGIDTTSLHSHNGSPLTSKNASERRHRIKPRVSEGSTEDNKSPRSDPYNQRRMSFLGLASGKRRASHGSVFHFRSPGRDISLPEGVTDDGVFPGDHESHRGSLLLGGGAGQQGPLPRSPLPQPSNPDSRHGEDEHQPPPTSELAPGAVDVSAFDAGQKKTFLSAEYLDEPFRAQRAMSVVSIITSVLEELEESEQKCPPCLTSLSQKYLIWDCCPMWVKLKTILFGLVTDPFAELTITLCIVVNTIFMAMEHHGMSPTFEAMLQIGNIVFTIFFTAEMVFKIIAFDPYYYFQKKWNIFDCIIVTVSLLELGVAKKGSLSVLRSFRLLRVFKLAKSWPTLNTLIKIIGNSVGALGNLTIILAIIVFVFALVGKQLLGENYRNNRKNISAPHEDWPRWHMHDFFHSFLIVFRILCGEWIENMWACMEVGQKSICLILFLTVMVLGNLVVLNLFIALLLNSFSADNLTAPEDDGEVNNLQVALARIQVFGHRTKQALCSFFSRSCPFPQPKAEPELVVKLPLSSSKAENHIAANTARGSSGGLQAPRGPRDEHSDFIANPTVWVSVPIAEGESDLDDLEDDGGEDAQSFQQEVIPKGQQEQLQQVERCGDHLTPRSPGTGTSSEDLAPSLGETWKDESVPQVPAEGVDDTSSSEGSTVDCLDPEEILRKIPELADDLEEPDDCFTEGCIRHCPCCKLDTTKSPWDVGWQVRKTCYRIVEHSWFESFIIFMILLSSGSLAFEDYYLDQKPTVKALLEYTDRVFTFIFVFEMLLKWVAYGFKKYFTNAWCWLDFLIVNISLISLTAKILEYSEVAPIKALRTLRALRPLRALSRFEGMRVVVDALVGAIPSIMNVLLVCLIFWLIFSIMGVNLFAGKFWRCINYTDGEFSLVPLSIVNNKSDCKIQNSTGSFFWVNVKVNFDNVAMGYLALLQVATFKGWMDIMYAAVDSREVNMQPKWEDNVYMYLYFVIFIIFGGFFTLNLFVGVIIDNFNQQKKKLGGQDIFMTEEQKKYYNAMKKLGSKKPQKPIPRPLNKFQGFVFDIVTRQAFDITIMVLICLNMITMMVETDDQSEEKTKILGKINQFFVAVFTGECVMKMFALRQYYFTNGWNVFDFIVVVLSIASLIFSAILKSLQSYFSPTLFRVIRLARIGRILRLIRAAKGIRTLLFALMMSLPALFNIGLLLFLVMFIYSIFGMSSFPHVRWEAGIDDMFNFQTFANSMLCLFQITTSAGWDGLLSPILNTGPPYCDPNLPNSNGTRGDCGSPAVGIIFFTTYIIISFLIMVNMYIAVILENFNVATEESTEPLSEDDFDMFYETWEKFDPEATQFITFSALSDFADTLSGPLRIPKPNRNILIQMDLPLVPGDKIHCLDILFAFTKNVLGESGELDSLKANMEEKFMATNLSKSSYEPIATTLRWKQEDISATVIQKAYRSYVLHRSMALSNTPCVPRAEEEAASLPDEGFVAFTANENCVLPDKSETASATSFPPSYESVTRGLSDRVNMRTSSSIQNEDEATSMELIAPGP

Row | SMILES | share of patients in which it works [1] | IC50 (NaV 1.8) | IC50 (NaV 1.3)
1 | NCC1(CC(=O)O)CCCCC1 [Gabapentin] | 60% | – | –
2 | NC1=N[C@H](O)[C@H]2[C@H]3O[C@]4(O)O[C@@H]([C@@H](O)[C@@]2(N1)[C@@H]4O)[C@]3(O)CO [TTX, tetrodotoxin] | – | > 50 µM | 15 nM
